# Laboratory results reported in US20150266908A1, “FLAME RETARDANT COMPRISING AROMATIC PHOSPHATE ESTER-BASED COMPOUND, AND METHOD FOR PREPARING SAME” (priority 2012, published 2015).
# System: CHO cells
# Assay: Test on toxicity of DPBAP: chromosomal abnormality in CHO cells
# Type: cell-based
# Protocol: A test on the toxicity of the DPBAP in accordance with the method of the present invention was performed (by the Korea Research Institute of Chemical Technology). After treating the DPBAP to CHO cells, chromosomal abnormality was measured. Consequently, the increasing of the chromosomal abnormality was not observed in all of DPBAP treatment groups regardless of application of metabolic activation system. […] However, in the CHO cells, it was known that the polyploid and endoreduplication can be generally observed due to the over-proliferation, or other causes (Scott et al., 1990).
structure (smiles),measurement,setting,value
"CCCCNP(=O)(Oc1ccccc1)Oc1ccccc1 [DPBAP, Diphenylbutylaminophosphate]",toxicity (overall conclusion),CHO cells chromosomal abnormality test,no toxicity were observed
same,increasing of the chromosomal abnormality,"CHO cells, all DPBAP treatment groups, regardless of application of metabolic activation system",not observed
same,cells dead,"CHO cells, highest concentration of the test material",about 50%
same,polyploid and endoreduplication,"CHO cells, highest-concentration groups, treated during 24 hours",minority of polyploid and endoreduplication was observed
